Read-outs that look alike come from different tables or passages of the source.
Legend:
HCT116 = test: In vitro inhibition of human tumor cells, HCT116, MTT method; assay type: cell-based
Method: (§1) The cells were allowed to adhere overnight.
(§2) Adherent cells: Culture medium was aspirated and 100 μl/wells of basal culture (generally refers to medium without fetal bovine serum (FBS) and other additives) containing 0.5 mg/ml MTT were added. The cells were cultured for 3 hours. MTT-containing basal medium was aspirated and 100 μl/wells of DMSO were added to dissolve formazan.
(§3) Unstably adherent cells: Unstably adherent cells were directly added to the MTT solution to achieve the concentration of 0.5 mg/ml and cultured for 3 hours. The ternary solution in an equal volume to the system was added to the system to dissolve the formazan.
(§4) The DMSO concentration was 0.1%.

SW620 = test: In vitro inhibition of human tumor cells, SW620, SRB method; assay type: cell-based
Description: as §1
(§5) Trichloroacetic acid was removed. […] Excess SRB was removed.
as §4

LoVo = test: In vitro inhibition of human tumor cells, LoVo, SRB method; assay type: cell-based
Description: as §1, §5, §4

BxPC-3 = test: In vitro inhibition of human tumor cells, BxPC-3, MTT method; assay type: cell-based
Method: as §1, §2, §3, §4

NCI-H460 = test: In vitro inhibition of human tumor cells, NCI-H460, MTT method; assay type: cell-based
Method: as §1, §2, §3, §4

Fadu = test: In vitro inhibition of human tumor cells, Fadu, MTT method; assay type: cell-based
human colon cancer LoVo = conditions: 30 mg/kg i.v. qw × 2; LoVo model
Method: An allogeneic transplantation model of human colon cancer LoVo was established in nude mice subcutaneously using a tumor block inoculation method. When the tumor volume of the allogeneic transplantation was about 100 to 300 mm^3 and kept stable, the experimental animals were randomly divided into groups according to the tumor volume (day 0) by using a remainder method. The tumor volume was measured 2 to 3 times a week. At the end of the dosage period, the experimental animals were sacrificed. The subcutaneous tumors were peeled and weighed. The anti-tumor activity of the drug against the model was evaluated based on tumor volume and tumor weight-related data.
(§6) The calculation formula of the tumor volume was: Volume=0.5×long diameter×short diameter×short diameter.
V0 was the resulting tumor volume measured at the time of dosing in groups (i.e., d0) and Vt is the tumor volume at each measurement.
(§7) T was the subject and C was the model control.
TRTV was the average RTV of the subject and CRTV was the average RTV of the model control group.
(§8) Wn: average body weight of each group of experimental animals on day n, and W0: average body weight of each group of experimental animals on day 0.

human colon cancer SW620 = conditions: 30 mg/kg i.v. qw × 2; SW620 model
Method: An allogeneic transplantation model of human colon cancer SW620 was established in nude mice subcutaneously using a tumor block inoculation method. When the tumor volume of the allogeneic transplantation was about 100 to 300 mm^3 and remained stable, the experimental animals were randomly divided into groups according to the size of the tumor volume (day 0) by using a remainder method. The tumor volume was measured 2 to 3 times a week. At the end of the dosage period, the experimental animals were sacrificed. The subcutaneous tumors were peeled and weighed. The anti-tumor activity of the drug against the model was evaluated based on tumor volume and tumor weight-related data.
as §6
(§9) V0 was the resulting tumor volume measured at the time of dosing in groups (i.e., d0) and Vt was the tumor volume at each measurement.
(§10) T was the subject and C is the model control.
TRTV was the average value of RTV of the subject, and CRTV was the average RTV of the model control group.
as §8

A375 = test: In vitro inhibition of human tumor cells, A375, SRB method
Method: (§11) 1.1.2 Cell culture method: Cells were cultured in complete medium, 37° C., 5% CO2, saturated humidity to log growth phase (adherent cells generally attended to complete fusion), and cells were collected for subsequent experiments (adherent cells were first digested with trypsin/ethylene diamine tetraacetic acid (EDTA) to remove adherent).
(§12) 1.1.3 96-well cell culture plates (hereinafter referred to as 96-well plates) were inoculated with a certain number of cells (see Table 1 for details). The cells were allowed to adhere overnight. […] Finally, the total amount of cell protein in the assay wells was determined by the SRB method, or the cell viability was determined by the MTT method:
(§13) The culture medium was aspirated from the wells and the cells were fixed for 1 hour or more by adding 10% trichloroacetic acid. Trichloroacetic acid was removed. The resultant was washed with H2O and stained with 0.4% SRB for 15 to 30 minutes. Excess SRB was removed. The resultant was washed with 1% acetic acid. The protein-bound SRB was dissolved by adding 10 mM of 100 μl Tris (trishydroxymethylaminomethane). Tests were carried out at the wavelength of 570 nm.
(§14) 1.1.4 dilution and addition of β-glucuronidase: 1 to 2 mg of β-glucuronidase was weighed and dissolved in PBS to give a 2 mg/ml of stock solution. […] 80 μl of enzyme working solution was added to the enzyme-containing assay wells. The amount of β-glucuronidase was 1 μg/wells. No enzyme-containing assay wells were added to the 80 μl of complete medium.
(§15) The assay wells were charged with 20 μl of 10× compound working solution. The final volume was 200 μl per well. The DMSO concentration was 0.1%.
(§16) 1.1.6 Compound inhibition activity calculation: The test included a compound test group, a compound-free positive solvent control group (PC) and a compound-free negative solvent control group (NC). […] The average inhibition rate and the standard deviation (SD) were obtained from the repeated test wells. The average inhibition rate was plotted on the basis of the compound concentration as an abscissa and distributed in the form of logarithms. The curve was fitted to the Logistic 4 parameter equation. […] The test was generally repeated to obtain 3 valid results.

22RV1 = test: In vitro inhibition of human tumor cells, 22RV1, SRB method
Method: as §11, §12, §13, §14, §15, §16

BEL-7404 = test: In vitro inhibition of human tumor cells, BEL-7404, SRB method
Method: as §11, §12, §13, §14, §15, §16

MDA-MB-468 = test: In vitro inhibition of human tumor cells, MDA-MB-468, SRB method
Method: as §11, §12, §13, §14, §15, §16

NCI-N87 = test: In vitro inhibition of human tumor cells, NCI-N87, MTT method; assay type: cell-based
[1] = tested on: human colon cancer HCT116; test: Growth of human colon cancer HCT116 in allogeneic transplantation model; assay type: in vivo, nude mice; conditions: 10 mg/kg i.v. qw × 2
Method: (§17) When the tumor volume of the allogeneic transplantation was about 100 to 300 mm^3 and remained stable, the experimental animals were randomly divided into groups according to the size of the tumor volume (day 0) by using a remainder method. The tumor volume was measured 2 to 3 times a week. At the end of the dosage period, the experimental animals were sacrificed. The subcutaneous tumors were peeled and weighed. The anti-tumor activity of the drug against the model was evaluated based on tumor volume and tumor weight-related data.
as §6, §9, §10
(§18) TRTV was the average RTV of the subject, and CRTV was the average RTV of the model control group.
as §8

[2] = tested on: human small cell lung cancer NCI-H446; conditions: 20 mg/kg i.v. qw × 2; NCI-H446 model
Method: An allogeneic transplantation model of human small cell lung cancer NCI-H446 was established in nude mice subcutaneously using a tumor block inoculation method. When the tumor volume of the allogeneic transplantation was about 100 to 300 mm^3 and remained stable, the experimental animals were randomly divided into groups according to the size of the tumor volume (day 0, i.e., d0) using a remainder method. The tumor volume was measured 2 to 3 times a week. At the end of the dosage period, the experimental animals were sacrificed. The subcutaneous tumors were peeled and weighed. The anti-tumor activity of the drug against the model was evaluated based on tumor volume and tumor weight-related data.
as §6, §9, §7, §18, §8

[3] = tested on: human pancreatic cancer BxPC-3; test: Growth of human pancreatic cancer BxPC-3 in allogeneic transplantation model; assay type: in vivo, nude mice; conditions: 25 mg/kg i.v. qw × 2, BxPC-3 model
Method: as §17, §6, §9, §7, §18, §8
(§19) In the large tumor efficacy test after the second grouping of the G5 group, since the number of samples in each group of G6.1 and G6.4 was less than three, the relevant data of the large tumor efficacy test were statistically analyzed among groups using the T-Test method.

[4] = tested on: human gastric cancer NCI-N87; test: Growth of human gastric cancer NCI-N87 in allogeneic transplantation model; assay type: in vivo, nude mice
Method: The tumor volume was measured 2 to 3 times per week. […] The subcutaneous tumors were peeled and weighed.
The calculation formula of the tumor volume: Volume=0.5×long diameter×short diameter×short diameter.

[5] = tested on: human pancreatic cancer BxPC-3; conditions: 30 mg/kg i.v. qw × 2
Method: as §17, §6, §9, §7, §18, §8, §19

[6] = No βGU (direct effects of compound on cells)
[7] = BxPC-3 large tumors after irinotecan

With “4-amino-6-((E)-(4′-(6-(4-((2-(((S)-4,11-diethyl-4-hydroxy-3,14-dioxy-3,4,12,14-tetrahydro-1H-pyrano[3′,4′:6,7]indolazo[1,2-b]quinolin-9-yl)oxy)methyl)-5-(((2S,3R,4S,5 S,6S)-3,4,5-trihydroxy-6-(methoxycarbonyl)tetrahydro-2H-pyran-2-yl)oxy)phenoxy)methyl)-1H-1,2,3-triazol-1-yl)hexanamido)-3,3′-dimethyl-[1,1′-biphenyl]-4-yl)diazenyl)-5-hydroxynaphthalene-1,3-disulfonate disodium [Example 21]” the IC50 (HCT116; Adding βGU (β-glucuronidase)) was 35 nM, the IC50 (HCT116; [6]) was 244 nM and the IC50 (SW620; Adding βGU) was 23 nM. The IC50 (SW620; No βGU) was 764 nM, the IC50 (LoVo; Adding βGU) was 45 nM and the IC50 (LoVo; No βGU) was 720 nM. It also gave an IC50 (BxPC-3; Adding βGU) of 62 nM, an IC50 (BxPC-3; No βGU) of 688 nM and an IC50 (NCI-H460; Adding βGU) of 80 nM. It also gave an IC50 (NCI-H460; No βGU) of 770 nM, an IC50 (Fadu; Adding βGU) of 9.8 nM and an IC50 (Fadu; No βGU) of 298 nM. For the same substance, the “T/C (%)” value (human colon cancer LoVo) was 9.8%, the “Tumor inhibition rate (%)” value (human colon cancer LoVo) was 93.1% and the “T/C (%)” value (human colon cancer SW620) was 0.5%. For the same substance, the “Tumor inhibition rate (%)” value (human colon cancer SW620) was 99.8%, the IC50 (A375; Adding βGU) was 8.8 nM and the IC50 (A375; No βGU) was 556 nM. For the same substance, the IC50 (22RV1; Adding βGU) was 14.5 nM, the IC50 (22RV1; No βGU) was 399 nM and the IC50 (BEL-7404; Adding βGU) was 28 nM. It also gave an IC50 (BEL-7404; No βGU) of 439 nM, an IC50 (MDA-MB-468; Adding βGU) of 42 nM and an IC50 (MDA-MB-468; No βGU) of 177 nM.
With “(2S,3S,4S,5R,6S)-6-(3-((1-(2-(2-(2-((4′-((E)-(8-amino-1-hydroxy-5,7-disulfononaphthalen-2-yl)diazenyl)-3,3′-dimethoxy-[1,1′-biphenyl]-4-yl)amino)-2-oxoethoxy)ethoxy)ethyl)-1H-1,2,3-triazol-4-yl)methoxy)-4-(((S)-4,11-diethyl-4-hydroxy-3,14-dioxo-3,4,12,14-tetrahydro-1H-pyrano[3′,4′:6,7]indolazino[1,2-b]quinolin-9-yl)oxy)methyl)phenoxy)-3,4,5-trihydroxytetrahydro-2H-pyran-2-carboxylate trisodium [Example 61]” the IC50 (HCT116; Adding βGU (β-glucuronidase)) was 5.4 nM, the IC50 (HCT116; [6]) was 220 nM and the IC50 (SW620; Adding βGU) was 2.6 nM. The IC50 (SW620; No βGU) was 283 nM, the IC50 (LoVo; Adding βGU) was 5.9 nM and the IC50 (LoVo; No βGU) was 244 nM. It also gave an IC50 (NCI-N87; Adding βGU) of 33 nM, an IC50 (NCI-N87; No βGU) of 395 nM and an IC50 (BxPC-3; Adding βGU) of 7.1 nM. It also gave an IC50 (BxPC-3; No βGU) of 915 nM, an IC50 (NCI-H460; Adding βGU) of 8.6 nM and an IC50 (NCI-H460; No βGU) of 518 nM. The IC50 (Fadu; Adding βGU) was 15 nM, the IC50 (Fadu; No βGU) was 498 nM and the “T/C (%)” value [1] was 27.2%. For the same substance, the “Tumor inhibition rate (%)” value [1] was 76.8%, the “Relative volume RTV (X ± S.D.)” value [2] was 0.25 ± 0.25 and the “T/C (%)” value [2] was 3.7%. For the same substance, the “Tumor inhibition rate (%)” value [2] was 96.0%, the “Tumor weight (g, X ± S.D.)” value [2] was 0.039 ± 0.049 g and the IC50 (A375; Adding βGU) was 12.5 nM. The IC50 (A375; No βGU) was 782 nM, the IC50 (22RV1; Adding βGU) was 8.4 nM and the IC50 (22RV1; No βGU) was 225 nM. The IC50 (BEL-7404; Adding βGU) was 40 nM, the IC50 (BEL-7404; No βGU) was 565 nM and the IC50 (MDA-MB-468; Adding βGU) was 6.5 nM. The IC50 (MDA-MB-468; No βGU) was 212 nM.
Substance “(2S,3S,4S,5R,6S)-6-(3-((1-(5-((4′-((E)-(8-amino-1-hydroxy-5,7-disulfonicnaphthalen-2-yl)diazenyl)-3,3′-dimethyl-[1,1′-biphenyl]-4-yl)amino)-5-oxopentyl)-1H-1,2,3-triazol-4-yl)methoxy)-4-((((S)-4,11-diethyl-4-hydroxy-3,14-dioxy-3,4,12,14-tetrahydro-1H-pyrano[3′,4′:6,7]indolazino[1,2-b]quinolin-9-yl)oxy)methyl)phenoxy)-3,4,5-trihydroxytetrahydro-2H-pyran-2-carboxylate trisodium [Example 85]” has an IC50 (NCI-N87; Adding βGU) of 31 nM, an IC50 (NCI-N87; No βGU) of 178 nM and an IC50 (Fadu; Adding βGU) of 15 nM. For the same substance, the IC50 (Fadu; No βGU) was 706 nM, the “Relative volume RTV (X ± S.D.)” value [3] was 0.23 ± 0.05 and the “T/C (%)” value [3] was 4.8%. The “Tumor inhibition rate (%)” value [3] was 97.2%, the “Tumor weight (g, X ± S.D.)” value [3] was 0.047 ± 0.027 g and the “Final body weight change (%)” value ([3]; nude mouse) was 4.0%. The “Relative volume RTV (X ± S.D.)” value ([4]; 20 mg/kg i.v. qw × 2) was 0.67 ± 0.24, the “T/C (%)” value ([4]; 20 mg/kg i.v. qw × 2) was 13.0% and the “Tumor inhibition rate (%)” value ([4]; 20 mg/kg i.v. qw × 2) was 93.6%. For the same substance, the “Tumor weight (g, X ± S.D.)” value ([4]; 20 mg/kg i.v. qw × 2) was 0.076 ± 0.014 g, the “Final body weight change (%)” value ([4]; 20 mg/kg i.v. qw × 2, nude mouse) was 10.0% and the “Relative volume RTV (X ± S.D.)” value [5, 7] was 0.48 ± 0.11. For the same substance, the “T/C (%)” value [5, 7] was 13.7%, the “Tumor inhibition rate (%)” value [5, 7] was 90.0% and the “Tumor weight (g, X ± S.D.)” value [5, 7] was 0.301 ± 0.051 g. For the same substance, the “Final body weight change (%)” value ([5]; BxPC-3 tumors more than 600 mm^3 after irinotecan 100 mg/kg i.p. qw × 2) was 0.4%, the IC50 (A375; Adding βGU) was 19 nM and the IC50 (A375; No βGU) was 864 nM. The IC50 (22RV1; Adding βGU) was 9 nM, the IC50 (22RV1; No βGU) was 248 nM and the IC50 (BEL-7404; Adding βGU) was 50 nM. For the same substance, the IC50 (BEL-7404; No βGU) was 721 nM, the IC50 (MDA-MB-468; Adding βGU) was 9.7 nM and the IC50 (MDA-MB-468; No βGU) was 71 nM.
“(2S,3S,4S,5R,6S)-6-(3-((1-(6-((4′-((E)-(8-amino-1-hydroxy-5,7-disulfonicnaphthalen-2-yl)diazenyl)-[1,1′-biphenyl]-4-yl)amino)-6-oxohexyl)-1H-1,2,3-triazol-4-yl)methoxy)-4-((((S)-4,11-diethyl-4-hydroxy-3,14-dioxo-3,4,12,14-tetrahydro-1H-pyrano[3′,4′:6,7]indolazino[1,2-b]quinolin-9-yl)oxy)methyl)phenoxy)-3,4,5-trihydroxytetrahydro-2H-pyran-2-carboxylate trisodium [Example 78]” showed an IC50 (HCT116; Adding βGU (β-glucuronidase)) of 2.4 nM, an IC50 (HCT116; [6]) of 42 nM and an IC50 (SW620; Adding βGU) of 7.3 nM. The IC50 (SW620; No βGU) was 329 nM, the IC50 (LoVo; Adding βGU) was 11 nM and the IC50 (LoVo; No βGU) was 301 nM. It also gave an IC50 (NCI-N87; Adding βGU) of 26 nM, an IC50 (NCI-N87; No βGU) of 170 nM and an IC50 (BxPC-3; Adding βGU) of 13 nM. For the same substance, the IC50 (BxPC-3; No βGU) was 610 nM, the IC50 (NCI-H460; Adding βGU) was 9.6 nM and the IC50 (NCI-H460; No βGU) was 530 nM. The IC50 (Fadu; Adding βGU) was 6.9 nM, the IC50 (Fadu; No βGU) was 346 nM and the “T/C (%)” value (human colon cancer LoVo) was 15.8%. For the same substance, the “Tumor inhibition rate (%)” value (human colon cancer LoVo) was 88.2%, the “T/C (%)” value (human colon cancer SW620) was 0.6% and the “Tumor inhibition rate (%)” value (human colon cancer SW620) was 99.4%. The IC50 (A375; Adding βGU) was 22 nM, the IC50 (A375; No βGU) was 984 nM and the IC50 (22RV1; Adding βGU) was 7.6 nM. For the same substance, the IC50 (22RV1; No βGU) was 267 nM, the IC50 (BEL-7404; Adding βGU) was 35 nM and the IC50 (BEL-7404; No βGU) was 458 nM. It also gave an IC50 (MDA-MB-468; Adding βGU) of 3.3 nM and an IC50 (MDA-MB-468; No βGU) of 28 nM.

From patent publication US20250325676A1, “CAMPTOTHECIN PRODRUG AND PHARMACEUTICAL COMPOSITION THEREOF” (TIANJIN HEMAY ONCOLOGY PHARMACEUTICAL CO., LTD, priority 2022, published 2025)
